This experiment deals with T1, hROMK (hKir1.1) (Homo sapiens, UniProt P48048).
T1 construct: expressed in transfected cells
T1 sequence (P48048 1-391): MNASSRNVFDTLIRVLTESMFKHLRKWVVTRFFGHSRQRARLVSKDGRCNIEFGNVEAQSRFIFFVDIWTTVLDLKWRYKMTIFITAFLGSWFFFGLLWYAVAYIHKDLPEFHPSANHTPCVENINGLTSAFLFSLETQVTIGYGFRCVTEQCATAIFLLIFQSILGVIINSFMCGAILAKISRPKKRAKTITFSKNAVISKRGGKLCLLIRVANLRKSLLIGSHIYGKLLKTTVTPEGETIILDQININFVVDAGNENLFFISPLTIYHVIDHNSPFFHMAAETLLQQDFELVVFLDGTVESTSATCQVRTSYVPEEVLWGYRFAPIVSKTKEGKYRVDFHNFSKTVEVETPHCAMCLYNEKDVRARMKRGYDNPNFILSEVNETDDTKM
The experiment is described as follows: Thallium Flux Assay. It counts as cell-based. In short, it runs like this:
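HEK293 cells stably expressing hROMK, loaded with FluxOR dye 90 min at ambient temperature, then compound 30 min with 0.3 mM ouabain in probenecid buffer pH 7.4.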

[1] abbreviates: HEK293 cells stably expressing hROMK (hKir1.1), FLIPR-Tetra, read-out: Thallium Flux IC50.

Structures are written as SMILES. Read-outs that look alike come from different tables or passages of the source.

As to `N#Cc1c(F)ccc([C@H]2CN3CCN(C(=O)Cc4cnc(-n5cnnn5)nc4)C[C@@H]3CO2)c1Cl` [Example 126, 2-chloro-6-fluoro-3-[(3S,9aR)-8-{[2-(1H-tetrazol-1-yl)pyrimidin-5-yl]acetyl}octahydropyrazino[2,1-c][1,4]oxazin-3-yl]benzonitrile], the IC50 – broadly, the concentration at which inhibition is half-maximal – under setting [1] turned out to be 140 nM.

In the case of `Cc1nc(CC(=O)N2CCN3C[C@H](c4ccc(F)c(C#N)c4C)OC[C@@H]3C2)ccc1-n1cnnn1` [Example 127, 6-fluoro-2-methyl-3-[(3S,9aS)-8-{[6-methyl-5-(1H-tetrazol-1-vl)pvridin-2-yl]acetyl}octahydropyrazino[2,1-c][1,4]oxazin-3-yl]benzonitrile], the IC50 (Thallium Flux IC50) is 90 nM.

In the case of `Cc1nc(CC(=O)N2CCN3C[C@@H](c4ccc(F)c(C#N)c4C)OC[C@@H]3C2)ccc1-n1cnnn1` [Example 128, 6-fluoro-2-methyl-3-[(3R,9aS)-8-{[6-methyl-5-(1H-tetrazol-1-vl)pvridin-2-yl]acetyl}octahydropyrazino[2,1-c][1,4]oxazin-3-yl]benzonitrile], the IC50 under setting [1] turned out to be 180 nM.

For the compound `Cc1cc(CC(=O)N2CCN3C[C@@H](c4ccc(F)c(C#N)c4C)OC[C@H]3C2)ncc1-n1cnnn1` [Example 129, 6-fluoro-2-methyl-3-[(3R,9aR)-8-{[4-methyl-5-(1H-tetrazol-1-yl)pyridin-2-yl]acetyl}octahydropyrazino[2,1-c][1,4]oxazin-3-yl]benzonitrile], the IC50 under setting [1] was determined as 250 nM.

Where the note is “Thallium Flux IC50”, `Cc1cc(CC(=O)N2CCN3C[C@H](c4ccc(F)c(C#N)c4C)OC[C@@H]3C2)ncc1-n1cnnn1` [Example 130, 6-fluoro-2-methyl-3-[(3S,9aS)-8-{[4-methyl-5-(1H-tetrazol-1-yl)pyridin-2-yl]acetyl}octahydropyrazino[2,1-c][1,4]oxazin-3-yl]benzonitrile] registered an IC50 of 190 nM.

With `Cc1nc(CC(=O)N2CCN3C[C@H](c4ccc(F)c(C#N)c4C)OC[C@H]3C2)ccc1-n1cnnn1` [Example 131, 6-fluoro-2-methyl-3-[(3S,9aR)-8-{[6-methyl-5-(1H-tetrazol-1-vl)pvridin-2-yl]acetul}octahydropyrazino[2,1-c][1,4]oxazin-3-yl]benzonitrile], the IC50 under setting [1] was 200 nM.

For `Cc1cc(CC(=O)N2CCN3C[C@H](c4ccc(F)c(C#N)c4C)OC[C@H]3C2)cnc1-n1cnnn1` [Example 134, 6-fluoro-2-methyl-3-[(3S,9aR)-8-{[5-methyl-6-(1H-tetrazol-1-yl)pyridin-3-yl]acetyl}octahydropyrazino[2,1-c][1,4]oxazin-3-yl]benzonitrile], the IC50 under setting [1] turned out to be 280 nM.

For the setting “Thallium Flux IC50”, `COc1ccc([C@@H]2CN3CCN(C(=O)Cc4cnc(-n5cnnn5)nc4)C[C@H]3CO2)c(C)c1C#N` [Example 135, 6-methoxy-2-methyl-3-[(3R,9aS)-8-{[2-(1H-tetrazol-1-vl)pvrimidin-5-yl]acetyl}octahydropyrazino[2,1-c][1,4]oxazin-3-yl]benzonitrile] registered an IC50 of 330 nM.

In the case of `N#Cc1c(F)ccc([C@@H]2CN3CCN(C(=O)Cc4cnc(-n5cnnn5)nc4)C[C@H]3CO2)c1Cl` [Example 136, 2-chloro-6-fluoro-3-[(3R,9aS)-8-{[2-(1H-tetrazol-1-yl)pyrimidin-5-yl]acetyl}octahydropyrazino[2,1-c][1,4]oxazin-3-yl]benzonitrile], the IC50 (Thallium Flux IC50) was found to be 40 nM.

`N#Cc1c(F)ccc([C@H]2CN3CCN(C(=O)Cc4cnc(-n5cnnn5)nc4)C[C@H]3CO2)c1Cl` [Example 137, 2-chloro-6-fluoro-3-[(3S,9aS)-8-{[2-(1H-tetrazol-1-yl)pyrimidin-5-yl]acetyl}octahydropyrazino[2,1-c][1,4]oxazin-3-yl]benzonitrile] registered an IC50 (Thallium Flux IC50) of 60 nM.

As for `Cc1nc(-n2cnnn2)ncc1CC(=O)N1CCN2C[C@@H](c3ccc(F)c(C#N)c3Cl)OC[C@H]2C1` [Example 138, 2-chloro-6-fluoro-3-[(3R,9aR)-8-{[4-methyl-2-(1H-tetrazol-1-vl)pvrimidin-5-yl]acetyl}octahydropyrazino[2,1-c][1,4]oxazin-3-yl]benzonitrile], the IC50 under setting [1] turned out to be 140 nM.

For `COc1c([C@H]2CN3CCN(C(=O)Cc4cnc(-n5cnnn5)nc4)C[C@H]3CO2)ccc(F)c1C#N` [Example 139, 6-fluoro-2-methoxy-3-[(3S,9aS)-8-{[2-(1H-tetrazol-1-vl)pvrimidin-5-yl]acetyl}octahydropyrazino[2,1-c][1,4]oxazin-3-yl]benzonitrile], the IC50 under setting [1] amounted to 160 nM.

Consider `COc1c([C@@H]2CN3CCN(C(=O)Cc4cnc(-n5cnnn5)nc4)C[C@H]3CO2)ccc(F)c1C#N` [Example 140, 6-fluoro-2-methoxy-3-[(3R,9aS)-8-{[2-(1H-tetrazol-1-vl)pvrimidin-5-yl]acetyl}octahydropyrazino[2,1-c][1,4]oxazin-3-yl]benzonitrile], for which the IC50 under setting [1] is 120 nM.

In the case of `N#Cc1cc([C@@H]2CN3CCN(C(=O)Cc4cnc(-n5cnnn5)nc4)C[C@@H]3CO2)ccc1F` [Example 141, 2-fluoro-5-[(3R,9aR)-8-{[2-(1H-tetrazol-1-yl)pyrimidin-5-yl]acetyl}octahydropyrazino[2,1-c][1,4]oxazin-3-yl]benzonitrile], under setting [1], the IC50 came out at 300 nM.

On to `COc1cc([C@H]2CN3CCN(C(=O)Cc4cnc(-n5cnnn5)nc4)C[C@H]3CO2)ccc1C#N` [Example 143, 2-methoxy-4-[(3S,9aS)-8-{[2-(1H-tetrazol-1-yl)pyrimidin-5-yl]acetyl}octahydropyrazino[2,1-c][1,4]oxazin-3-yl]benzonitrile], for which the IC50 under setting [1] worked out at 190 nM.

Turning to `COc1cc([C@@H]2CN3CCN(C(=O)Cc4cnc(-n5cnnn5)nc4)C[C@H]3CO2)ccc1C#N` [Example 144, 2-methoxy-4-[(3R,9aS)-8-{[2-(1H-tetrazol-1-yl)pyrimidin-5-yl]acetyl}octahydropyrazino[2,1-c][1,4]oxazin-3-yl]benzonitrile], the IC50 under setting [1] is 390 nM.

Under “Thallium Flux IC50”, `O=C1OCCc2cc([C@@H]3CN4CCN(C(=O)Cc5cnc(-n6cnnn6)nc5)C[C@H]4CO3)ccc21` [Example 145, 6-[(3R,9aS)-8-{[2-(1H-tetrazol-1-yl)pyrimidin-5-yl]acetyl}octahydropyrazino[2,1-c][1,4]oxazin-3-yl]-3,4-dihydro-1H-isochromen-1-one] yielded an IC50 of 240 nM.

Consider `Cc1c([C@@H]2CN3CCN(C(=O)Cc4cnc(-n5cnnn5)c(F)c4)C[C@@H]3CO2)ccc(F)c1C#N` [Example 146, 6-fluoro-3-[(3R,9aR)-8-{[5-fluoro-6-(1H-tetrazol-1-yl)pyridin-3-yl]acetyl}octahydropyrazino[2,1-c][1,4]oxazin-3-yl]-2-methylbenzonitrile], for which the IC50 under setting [1] is 90 nM.

With `Cc1c([C@H]2CN3CCN(C(=O)Cc4cnc(-n5cnnn5)c(F)c4)C[C@@H]3CO2)ccc(F)c1C#N` [Example 147, 6-fluoro-3-[(3S,9aR)-8-{[5-fluoro-6-(1H-tetrazol-1-yl)pyridin-3-yl]acetyl}octahydropyrazino[2,1-c][1,4]oxazin-3-yl]-2-methylbenzonitrile], under setting [1], the IC50 was 140 nM.

Turning to `Cc1c([C@@H]2CN3CCN(C(=O)Cc4cnc(-n5cnnn5)c(F)c4)C[C@H]3CO2)ccc(F)c1C#N` [Example 148, 6-fluoro-3-[(3R,9aS)-8-{[5-fluoro-6-(1H-tetrazol-1-yl)pyridin-3-yl]acetyl}octahydropyrazino[2,1-c][1,4]oxazin-3-yl]-2-methylbenzonitrile], the IC50 under setting [1] was determined as 80 nM.

Regarding `Cc1c([C@H]2CN3CCN(C(=O)Cc4cnc(-n5cnnn5)c(F)c4)C[C@H]3CO2)ccc(F)c1C#N` [Example 149, 6-fluoro-3-[(3S,9aS)-8-{[5-fluoro-6-(1H-tetrazol-1-yl)pyridin-3-yl]acetyl}octahydropyrazino[2,1-c][1,4]oxazin-3-yl]-2-methylbenzonitrile], the IC50 under setting [1] came out at 130 nM.

`Cc1nc(-n2cnnn2)nc(C)c1CC(=O)N1CCN2C[C@H](c3ccc(F)c(C#N)c3C)OC[C@@H]2C1` [Example 150, 3-[(3S,9aS)-8-{[4,6-dimethyl-2-(1H-tetrazol-1-yl)pyrimidin-5-yl]acetyl}octahydropyrazino[2,1-c][1,4]oxazin-3-yl]-6-fluoro-2-methylbenzonitrile]: the IC50 under setting [1] worked out at 290 nM.

For `Cc1nc(-n2cnnn2)nc(C)c1CC(=O)N1CCN2C[C@H](c3ccc(F)c(C#N)c3C)OC[C@H]2C1` [Example 151, 3-[(3S,9aR)-8-{[4,6-dimethyl-2-(1H-tetrazol-1-yl)pyrimidin-5-yl]acetyl}octahydropyrazino[2,1-c][1,4]oxazin-3-yl]-6-fluoro-2-methylbenzonitrile], the concentration for half-maximal inhibition (IC50) (Thallium Flux IC50) amounted to 300 nM.

With `Cc1nc(-n2cnnn2)nc(C)c1CC(=O)N1CCN2C[C@@H](c3ccc(F)c(C#N)c3C)OC[C@H]2C1` [Example 152, 3-[(3R,9aR)-8-{[4,6-dimethyl-2-(1H-tetrazol-1-yl)pyrimidin-5-yl]acetyl}octahydropyrazino[2,1-c][1,4]oxazin-3-yl]-6-fluoro-2-methylbenzonitrile], under setting [1], the IC50 is 200 nM.

Compound `Cc1c([C@H]2CN3CCN(C(=O)Cc4ncc(-n5cnnn5)cc4Cl)C[C@H]3CO2)ccc(F)c1C#N` [Example 153, 3-[(3S,9aS)-8-{[3-chloro-5-(1H-tetrazol-1-yl)pyridin-2-yl]acetyl}octahydropyrazino[2,1-c][1,4]oxazin-3-yl]-6-fluoro-2-methylbenzonitrile] returned an IC50 (Thallium Flux IC50) of 170 nM.

(Values after EP2790511B1 (Merck Sharp & Dohme Corp., priority 2011, dated 2013).)
